Laboratory results: patent publication US11420956B2, “Ureas having Androgen Receptor degradation activity and uses thereof” (ACCUTAR BIOTECHNOLOGY INC., priority 2019, dated 2022)

Molecular target: T1, androgen receptor (AR) (Homo sapiens, UniProt P10275, T878A)
T1 construct: endogenous in cells; host or cells: LNCAP
T1 sequence (P10275 1-920 T878A): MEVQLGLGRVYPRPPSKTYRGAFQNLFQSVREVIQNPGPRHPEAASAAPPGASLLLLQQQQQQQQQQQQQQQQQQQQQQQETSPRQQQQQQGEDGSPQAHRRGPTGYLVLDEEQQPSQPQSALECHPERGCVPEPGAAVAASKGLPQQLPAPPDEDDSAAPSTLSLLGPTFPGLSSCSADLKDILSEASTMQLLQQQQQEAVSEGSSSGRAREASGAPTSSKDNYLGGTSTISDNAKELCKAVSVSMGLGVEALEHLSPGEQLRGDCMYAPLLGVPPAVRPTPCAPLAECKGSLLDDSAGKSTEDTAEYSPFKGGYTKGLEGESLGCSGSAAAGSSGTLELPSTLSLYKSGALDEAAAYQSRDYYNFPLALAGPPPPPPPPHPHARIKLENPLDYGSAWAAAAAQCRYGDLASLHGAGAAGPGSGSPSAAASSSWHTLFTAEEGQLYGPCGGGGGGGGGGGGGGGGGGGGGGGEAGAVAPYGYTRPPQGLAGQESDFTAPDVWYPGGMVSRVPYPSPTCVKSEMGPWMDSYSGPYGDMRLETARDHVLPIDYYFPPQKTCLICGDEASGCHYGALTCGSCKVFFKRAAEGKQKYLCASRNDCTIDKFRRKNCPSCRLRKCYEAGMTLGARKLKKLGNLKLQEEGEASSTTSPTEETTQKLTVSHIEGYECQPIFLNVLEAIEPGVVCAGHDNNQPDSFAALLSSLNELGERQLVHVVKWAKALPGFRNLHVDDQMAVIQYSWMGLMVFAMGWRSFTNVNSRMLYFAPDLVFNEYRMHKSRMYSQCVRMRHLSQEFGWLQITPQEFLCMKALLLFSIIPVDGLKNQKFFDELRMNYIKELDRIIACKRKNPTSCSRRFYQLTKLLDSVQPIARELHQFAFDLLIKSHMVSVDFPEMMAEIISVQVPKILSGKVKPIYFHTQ
Assay: AR degradation in LNCAP cells (Western blot)
Assay type: cell-based
Conditions: 24 hours after administration
Method: LNCAP, VCAP and 22Rv1 cells were plated in 24-well plates at 1.5×10E5 cells/well in the RPMI growth medium containing 10% FBS and 1% Penicillin Streptomycin, and then incubated at 37° C. overnight. The following day, the test compound was administered to the cells by using 1000× compound stock solution prepared in DMSO at various concentrations. After administration of the compound, the cells were then incubated at 37° C. for 24 hours. Upon completion, the cells were washed with PBS and protein was collected in Laemmli sample buffer (1×; VWR International). Proteins in cell lysate were separated by SDS-PAGE and transferred to Odyssey nitrocellulose membranes (Licor) with iblot® dry blotting transfer system (ThermoFisher). Nonspecific binding was blocked by incubating membranes with Intercept Blocking Buffer (Licor) for 1 hour at room temperature with gentle shaking. The membranes were then incubated overnight at 4° C. with Primary antibodies rabbit anti-AR (1:1,000, Cell Signaling, 5153) and mouse anti-GAPDH (1:5,000, Santa Cruz Biotechnology, sc-47724) diluted in Intercept Blocking Buffer containing 0.1% Tween 20. After washing 3 times with TBS-T, the membranes were incubated with IRDye® […] goat anti-mouse IgG (1:20,000, Licor) or IRDye® […] goat anti-rabbit IgG (1:20,000, Licor) for 1 hour. After TBS-T washes, membranes were rinsed in TBS and scanned on Odyssey® CLx Imaging System (Licor). The bands were quantified using Image Studio™ Software (Licor).
Tables 5 and 6 summarize the androgen receptor (AR) degradative activity of exemplary compounds in LNCAP, VCAP and 22Rv1 cell lines 24 hours after administration. DC50: compound concentration needed for 50% target protein degradation.

SMILES	DC50 [nM]
CC(C)N(CC1CCN(c2ccc(NC(=O)N3C[C@H](C)N(c4ccc(C#N)c(Cl)c4)C[C@H]3C)cn2)CC1)C1CC(Oc2ccc3c(c2)C(=O)N(C2CCC(=O)NC2=O)C3=O)C1 (stereo partly drawn) [Compound 1-11, (2R,5S)-4-(3-chloro-4-cyanophenyl)-N-(6-(4-((((1r,3r)-3-((2-(2,6-dioxopiperidin-3-yl)-1,3-dioxoisoindolin-5-yl)oxy)cyclobutyl)(isopropyl)amino)methyl)piperidin-1-yl)pyridin-3-yl)-2,5-dimethylpiperazine-1-carboxamide]	≤ 10
C[C@@H]1CN(c2ccc(C#N)c(Cl)c2)[C@@H](C)CN1C(=O)Nc1ccc(N2CCC(CN(C)C3CC(Oc4ccc5c(c4)C(=O)N(C4CCC(=O)NC4=O)C5=O)C3)CC2)nc1 (stereo partly drawn) [Compound 1-9, (2R,5S)-4-(3-chloro-4-cyanophenyl)-N-(6-(4-((((1r,3r)-3-((2-(2,6-dioxopiperidin-3-yl)-1,3-dioxoisoindolin-5-yl)oxy)cyclobutyl)(methyl)amino)methyl)piperidin-1-yl)pyridin-3-yl)-2,5-dimethylpiperazine-1-carboxamide]	≤ 10
C[C@@H]1CN(c2ccc(C#N)c(Cl)c2)[C@@H](C)CN1C(=O)Nc1ccc(N2CCC(CN3CCN(c4cc5c(cc4F)C(=O)N([C@H]4CCC(=O)NC4=O)C5=O)CC3)CC2)nc1 [Compound 1-54, (2R,5S)-4-(3-chloro-4-cyanophenyl)-N-(6-(4-((4-(2-(2,6-dioxopiperidin-3-yl)-6-fluoro-1,3-dioxoisoindolin-5-yl)piperazin-1-yl)methyl)piperidin-1-yl)pyridin-3-yl)-2,5-dimethylpiperazine-1-carboxamide]	≤ 10
C[C@@H]1CN(c2ccc(C#N)c(Cl)c2)[C@@H](C)CN1C(=O)Nc1ccc(N2CCC(CN3CCN(c4ccc5c(c4)C(=O)N(C4CCC(=O)NC4=O)C5=O)CC3)CC2)c(F)c1 (stereo partly drawn) [Compound 1-47, (2R,5S)-4-(3-chloro-4-cyanophenyl)-N-(4-(4-((4-(2-(2,6-dioxopiperidin-3-yl)-1,3-dioxoisoindolin-5-yl)piperazin-1-yl)methyl)piperidin-1-yl)-3-fluorophenyl)-2,5-dimethylpiperazine-1-carboxamide]	≤ 10
C[C@@H]1CN(c2ccc(C#N)c(Cl)c2)[C@@H](C)CN1C(=O)Nc1cnc(N2CCC(CN3CCN(c4ccc5c(c4)CN([C@H]4CCC(=O)NC4=O)C5=O)CC3)CC2)nc1 [Compound 1-51, (2R,5S)-4-(3-chloro-4-cyanophenyl)-N-(2-(4-((4-(2-((S)-2,6-dioxopiperidin-3-yl)-1-oxoisoindolin-5-yl)piperazin-1-yl)methyl)piperidin-1-yl)pyrimidin-5-yl)-2,5-dimethylpiperazine-1-carboxamide]	≤ 10
C[C@@H]1CN(c2ccc(C#N)c(Cl)c2)[C@@H](C)CN1C(=O)Nc1cnc(N2CCC(CN3CCN(c4cc5c(cc4F)C(=O)N(C4CCC(=O)NC4=O)C5=O)CC3)CC2)nc1 (stereo partly drawn) [Compound 1-41, (2R,5S)-4-(3-chloro-4-cyanophenyl)-N-(2-(4-((4-(2-(2,6-dioxopiperidin-3-yl)-6-fluoro-1,3-dioxoisoindolin-5-yl)piperazin-1-yl)methyl)piperidin-1-yl)pyrimidin-5-yl)-2,5-dimethylpiperazine-1-carboxamide]	≤ 10

The remaining lines, values ahead:

DC50 [nM]	SMILES
> 100	C[C@@H]1CN(c2ccc(C#N)c3ncccc23)[C@@H](C)CN1C(=O)Nc1cnc(N2CCC(CN3CCN(c4ccc5c(c4)C(=O)N(C4CCC(=O)NC4=O)C5=O)CC3)CC2)nc1 (stereo partly drawn) [Compound 2-8, (2R,5S)-4-(8-cyanoquinolin-5-yl)-N-(2-(4-((4-(2-(2,6-dioxopiperidin-3-yl)-1,3-dioxoisoindolin-5-yl)piperazin-1-yl)methyl)piperidin-1-yl)pyrimidin-5-yl)-2,5-dimethylpiperazine-1-carboxamide]
> 100	C[C@@H]1CN(c2ccc(C#N)c3ncccc23)[C@@H](C)CN1C(=O)Nc1ccc(N2CCC(CN3CCN(c4cc5c(cc4F)C(=O)N(C4CCC(=O)NC4=O)C5=O)CC3)CC2)nc1 (stereo partly drawn) [Compound 2-22, (2R,5S)-4-(8-cyanoquinolin-5-yl)-N-(6-(4-((4-(2-(2,6-dioxopiperidin-3-yl)-6-fluoro-1,3-dioxoisoindolin-5-yl)piperazin-1-yl)methyl)piperidin-1-yl)pyridin-3-yl)-2,5-dimethylpiperazine-1-carboxamide]
> 100	C[C@@H]1CN(c2ccc(C#N)c3ncccc23)[C@@H](C)CN1C(=O)Nc1cnc(N2CCC(CN3CCN(c4cc5c(cc4F)C(=O)N(C4CCC(=O)NC4=O)C5=O)CC3)CC2)nc1 (stereo partly drawn) [Compound 2-23, (2R,5S)-4-(8-cyanoquinolin-5-yl)-N-(2-(4-((4-(2-(2,6-dioxopiperidin-3-yl)-6-fluoro-1,3-dioxoisoindolin-5-yl)piperazin-1-yl)methyl)piperidin-1-yl)pyrimidin-5-yl)-2,5-dimethylpiperazine-1-carboxamide]
> 100	C[C@@H]1CN(c2ccc(C#N)c3ncccc23)[C@@H](C)CN1C(=O)Nc1cc(F)c(N2CCC(CN3CCN(c4ccc5c(c4)CN([C@H]4CCC(=O)NC4=O)C5=O)CC3)CC2)cc1F [Compound 2-18, (2R,5S)-4-(8-cyanoquinolin-5-yl)-N-(4-(4-((4-(2-((S)-2,6-dioxopiperidin-3-yl)-1-oxoisoindolin-5-yl)piperazin-1-yl)methyl)piperidin-1-yl)-2,5-difluorophenyl)-2,5-dimethylpiperazine-1-carboxamide]
> 100	C[C@@H]1CN(c2ccc(C#N)c3ncccc23)[C@@H](C)CN1C(=O)Nc1cc(F)c(N2CCC(CN3CCN(c4ccc5c(c4)C(=O)N(C4CCC(=O)NC4=O)C5=O)CC3)CC2)cc1F (stereo partly drawn) [Compound 2-17, (2R,5S)-4-(8-cyanoquinolin-5-yl)-N-(4-(4-((4-(2-(2,6-dioxopiperidin-3-yl)-1,3-dioxoisoindolin-5-yl)piperazin-1-yl)methyl)piperidin-1-yl)-2,5-difluorophenyl)-2,5-dimethylpiperazine-1-carboxamide]
> 100	C[C@@H]1CN(c2ccc(C#N)c3ncccc23)[C@@H](C)CN1C(=O)Nc1cnc(N2CCC(CN3CCN(c4ccc5c(c4)CN([C@H]4CCC(=O)NC4=O)C5=O)CC3)CC2)nc1 [Compound 2-10, (2R,5S)-4-(8-cyanoquinolin-5-yl)-N-(2-(4-((4-(2-((S)-2,6-dioxopiperidin-3-yl)-1-oxoisoindolin-5-yl)piperazin-1-yl)methy)piperidin-1-yl)pyrimidin-5-yl)-2,5-dimethylpiperazine-1-carboxamide]
≤ 10	COc1cc(N2C[C@@H](C)N(C(=O)Nc3ccc(N4CCC(CN5CCN(c6ccc7c(c6)C(=O)N(C6CCC(=O)NC6=O)C7=O)CC5)CC4)cc3F)C[C@@H]2C)ccc1C#N (stereo partly drawn) [Compound 1-25, (2R,5S)-4-(4-cyano-3-methoxyphenyl)-N-(4-(4-((4-(2-(2,6-dioxopiperidin-3-yl)-1,3-dioxoisoindolin-5-yl)piperazin-1-yl)methyl)piperidin-1-yl)-2-fluorophenyl)-2,5-dimethylpiperazine-1-carboxamide]
≤ 10	COc1cc(N2C[C@@H](C)N(C(=O)Nc3cnc(N4CCC(CN5CCN(c6ccc7c(c6)CN([C@H]6CCC(=O)NC6=O)C7=O)CC5)CC4)nc3)C[C@@H]2C)ccc1C#N [Compound 1-52, (2R,5S)-4-(4-cyano-3-methoxyphenyl)-N-(2-(4-((4-(2-((S)-2,6-dioxopiperidin-3-yl)-1-oxoisoindolin-5-yl)piperazin-1-yl)methyl)piperidin-1-yl)pyrimidin-5-yl)-2,5-dimethylpiperazine-1-carboxamide]
